The test system of data set [1] is Leishmania donovani. The data set can be described thus: Antileishmanial activity against Leishmania donovani MHOH/IN/1983/AD83 promastigotes assessed as inhibition of calcium uptake. Format: functional, organism-based.
The subject of data set [2] is Leishmania donovani. The data set can be described thus: Antileishmanial activity against Leishmania donovani MHOH/IN/1983/AD83 amastigotes infected in BALB/c mouse peritoneal macrophage at 3 ug/mL treated 6 hrs after infection measured after 48 hrs using Giemsa staining relative to control. It is filed as functional.
For data set [3], the system named is Leishmania donovani. The data set can be described thus: Antileishmanial activity against Leishmania donovani MHOH/IN/1983/AD83 promastigotes assessed as cell killing at 30 ug/mL after 2 hrs by MTT assay relative to control. Format: functional.
In data set [4] the test system is Leishmania donovani. The data set can be described thus: Antileishmanial activity against Leishmania donovani MHOH/IN/1983/AD83 promastigotes assessed as viability after 2 hrs by MTT assay. It is filed as functional, organism-based. The note with it: MHOH/IN/1983/AD83, 2 h.
For data set [5], the system named is Mus musculus. The data set can be described thus: Toxicity in BALB/c mouse assessed as heart function at 10 mg/kg, po. Set-up: dose 10 mg/kg, route oral. It is filed as organism-based. The note with it: in vivo.
Data set [6] concerns Leishmania donovani. The data set can be described thus: Antileishmanial activity against Leishmania donovani MHOH/IN/1983/AD83 amastigotes infected in BALB/c mouse peritoneal macrophage treated 6 hrs after infection measured after 48 hrs using Giemsa staining relative to control. It is filed as functional, organism-based.
In data set [7] the test system is Mus musculus. The data set can be described thus: Toxicity in BALB/c mouse assessed as liver function at 10 mg/kg, po. Further details: dose 10 mg/kg, route oral. Particulars: in vivo. Format: organism-based.
Data set [8] deals with Mus musculus. The data set can be described thus: Toxicity in BALB/c mouse at 10 mg/kg, po. It is filed as organism-based. Set-up: dose 10 mg/kg, route oral. The note with it: in vivo.
The test system of data set [9] is Mus musculus. The data set can be described thus: Toxicity in BALB/c mouse assessed as kidney function at 10 mg/kg, po. Format: organism-based. Set-up: dose 10 mg/kg, route oral. The note with it: in vivo.
For data set [10], the system named is Leishmania donovani. The data set can be described thus: Antileishmanial activity against Leishmania donovani MHOH/IN/1983/AD83 promastigotes assessed as growth inhibition after 3 days by MTT assay. Particulars: MHOH/IN/1983/AD83, 72 h. It is filed as functional, organism-based. (In general: Tetrazolium assays rely on reduction of a dye to a coloured formazan, in cell work by metabolically active cells.)

In data set [11] the test system is Leishmania donovani. The data set can be described thus: Antileishmanial activity against Leishmania donovani MHOH/IN/1983/AD83 promastigotes assessed as increase in caspase 3 like activation in parasite cytosol at 3 to 30 ug/mL after 2 hrs by spectrofluorimetric analysis. Format: functional, organism-based.
Data set [12] can be described thus: Toxicity in BALB/c mouse peritoneal macrophage assessed as toxic dose. It is filed as cell-based. Particulars: peritoneal macrophage cell.
Data set [13] concerns Leishmania donovani. The data set can be described thus: Antileishmanial activity against Leishmania donovani MHOH/IN/1983/AD83 amastigotes infected in BALB/c mouse peritoneal macrophage assessed as cell killing at 15 ug/mL treated 6 hrs after infection measured after 48 hrs using Giemsa staining relative to control. It is filed as functional.
The test system of data set [14] is Leishmania donovani. The data set can be described thus: Antileishmanial activity against Leishmania donovani MHOH/IN/1983/AD83 promastigotes assessed as decrease in rate of oxygen consumption at 30 ug/mL after 2 hrs by polarographically with Clark electrode. Set-up: scale not given: the % may be the effect or the level left. Format: functional.

≈ marks a conversion by molar mass, not a printed value. Calls of active or inactive are those of the source. The rule behind the calls is not given here. A value given as a limit tells only on which side of the number the result lay.

Turning to `COc1ccc(CCN(C)CCCC(C#N)(c2ccc(OC)c(OC)c2)C(C)C)cc1OC` (stereo unspecified), in the data set with Leishmania donovani [1], the result was Active.
The same measure, in the same setting: to `COc1ccc([C@@H]2Sc3ccccc3N(CCN(C)C)C(=O)[C@@H]2OC(C)=O)cc1` belongs “Active”.
Broadly, the EC50 is the concentration needed to bring the measured effect to its halfway point. As a reminder, the IC50 is the point on the concentration scale where inhibition reaches its midpoint. In the case of `CCOC(=O)C1=C(COCCN)NC(C)=C(C(=O)OC)C1c1ccccc1Cl` (stereo unspecified) [AMLODIPINE], the Activity with Leishmania donovani [2] is above 50%; in the data set on Leishmania donovani [3] it was 98.76%; with Mus musculus [5], “Non-toxic”; in the data set with Leishmania donovani [6], “Dose-dependent effect”; in the data set with Mus musculus [7], “Non-toxic”; in the data set on Mus musculus [8] it was “Non-toxic”. Moreover, the Activity entry in the data set on Mus musculus [9] was “Non-toxic”; in [12], above 100 µg/mL; in the data set on Leishmania donovani [13] it was 96.39%. Further, in the data set with Leishmania donovani [4], the EC50 is 2 µg/mL (≈ 4.89 µM). The IC50 worked out at 2.1 µg/mL (≈ 5.14 µM) in the data set on Leishmania donovani [6] and 0.085 µg/mL (≈ 0.208 µM) in the data set on Leishmania donovani [10]. In addition, the result with Leishmania donovani [11] and in the data set on Leishmania donovani [1] was Active.
`CCOC(=O)C1=C(C)NC(C)=C(C(=O)OCC)C1c1ccccc1/C=C/C(=O)OC(C)(C)C` [LACIDIPINE]: the Activity was 78% in the data set with Leishmania donovani [14]; above 50% in the data set on Leishmania donovani [2]; 90.5% in the data set with Leishmania donovani [3]; “Non-toxic” in the data set with Mus musculus [5]; “Dose-dependent effect” in the data set on Leishmania donovani [6]; “Non-toxic” in the data set on Mus musculus [7]. Moreover, the Activity result was “Non-toxic” with Mus musculus [8], “Non-toxic” in the data set with Mus musculus [9], 150 µg/mL in data set [12] and 85.66% in the data set with Leishmania donovani [13]. In addition, the EC50 in the data set on Leishmania donovani [4] is 2.5 µg/mL (≈ 5.49 µM). Moreover, the IC50 worked out at 2.8 µg/mL (≈ 6.15 µM) in the data set on Leishmania donovani [6] and 1.45 µg/mL (≈ 3.18 µM) in the data set with Leishmania donovani [10]. In addition, the result with Leishmania donovani [11] and in the data set on Leishmania donovani [1] was Active.

These data come from ChEMBL document CHEMBL1152463 (Antimicrob Agents Chemother, 2008).
